Data: publication PMC7066271 (Clinical and Experimental Nephrology, 2020)
Values belong to the compound of their own block, whether it stands above or below them.

What was measured:
[1] = Plasma oxaprozin concentrations before and 24 h after co-administration (steady-state check); type: in vivo; conditions: male, human, oral, 24 h after co-administration with dotinurad, n = 11
Description: A blood sample was drawn, in the amount of 5 mL at each time point except for 10 mL at 4 h after drug administration, into a heparin-containing blood collection tube and centrifuged at 3000 rpm for 10 min at 4 °C. A plasma sample obtained at each time point was then stored at – 20 °C before shipping in a chilled condition with dry ice to Sekisui Medical Co., Ltd. (Ibaraki, Japan) for determination of plasma drug concentrations.
(§1) Ultrafiltered plasma samples were used to determine unbound plasma concentrations of dotinurad by a validated LC–MS/MS method (LC:LC-20AD system, SHIMADZU. MS/MS: API4000, SCIEX). The LLOQ was 0.1 ng/mL.

healthy adult males [2] = experiment: Safety evaluation: adverse events in healthy adult males; type: in vivo, human; conditions: for Adverse events reported, all: by treatment period, causal relationship with study drugs ruled out; for Peritonsillar abscess, incidence / Peritonsillar abscess, number of events / Pharyngitis, incidence / Pharyngitis, number of events / Urine beta 2 microglobulin increased, incidence / Urine beta 2 microglobulin increased, number of events: healthy adult males, n = 12 for each drug alone, n = 11 for co-administration
Description: (§2) This was a single-center, open-label, two-period, sequential-group, add-on, drug–drug interaction study in healthy adult males conducted at a Japanese clinical pharmacology study center. Following a screening period ranging from 29 days before, to the day before the study drug administration (Day -1), eligible subjects were admitted to the study site on Day-1, received a single 4 mg oral dose of dotinurad in a fed state, and were discharged 48 h postdose. […] They underwent a follow-up examination between six and ten days after co-administration for safety evaluation.
Adverse events (AEs), a measure used for safety evaluation, were coded by preferred term using the Medical Dictionary for Regulatory Activities (MedDRA) version 20.1 (Japanese Maintenance Organization, Tokyo, Japan) and tabulated. The investigator observed/examined/assessed AEs, subjective symptoms and objective findings, vital signs, electrocardiography, and laboratory test values.
The safety analysis population included subjects who received at least one dose of dotinurad and who had data for safety evaluation.

human plasma protein = system: human plasma protein; set-up: method as in earlier work; conditions: cited from earlier work
[3] = system: urate transporter 1 (URAT1); set-up: method as in PMID 31371478, PMID 31754883; conditions: cited from earlier work
[4] = system: organic anion transporter (OAT) 1; set-up: method as in PMID 31371478, PMID 31754883; conditions: compared to probenecid, benzbromarone, and lesinurad; cited from earlier work
[5] = Plasma pharmacokinetics of dotinurad, single 4 mg oral dose with and without oxaprozin, in healthy adult males; type: in vivo, human
Description: This was a single-center, open-label, two-period, sequential-group, add-on, drug-drug interaction study in healthy adult males conducted at a Japanese clinical pharmacology study center. Following a screening period ranging from 29 days before, to the day before the study drug administration (Day -1), eligible subjects were admitted to the study site on Day-1, received a single 4 mg oral dose of dotinurad in a fed state, and were discharged 48 h postdose. […] They underwent a follow-up examination between six and ten days after co-administration for safety evaluation. […] A blood sample was drawn, in the amount of 5 mL at each time point except for 10 mL at 4 h after drug administration, into a heparin-containing blood collection tube and centrifuged at 3000 rpm for 10 min at 4 °C. A plasma sample obtained at each time point was then stored at - 20 °C before shipping in a chilled condition with dry ice to Sekisui Medical Co., Ltd. (Ibaraki, Japan) for determination of plasma drug concentrations. […] Ultrafiltered plasma samples were used to determine unbound plasma concentrations of dotinurad by a validated LC-MS/MS method (LC:LC-20AD system, SHIMADZU. MS/MS: API4000, SCIEX). The LLOQ was 0.1 ng/mL.

healthy adult males [6] = experiment: Estimated glomerular filtration rate 24 h after dosing; type: in vivo, human
[7] = system: ATP-binding cassette subfamily G member 2 (ABCG2); set-up: method as in PMID 31371478, PMID 31754883; conditions: compared to probenecid, benzbromarone, and lesinurad; cited from earlier work
[8] = Urinary excretion (fe) of dotinurad metabolites with and without oxaprozin in healthy adult males; type: in vivo, human
Description: as §2
After the pH of the urine sample collected after each time interval was adjusted to ≤ 7.0, the sample was stored at – 20 °C before shipping in a chilled condition with dry ice to Fuji Yakuhin Co., Ltd. (Saitama, Japan) for determination of urinary concentrations of dotinurad’s metabolites.
Urinary concentrations of metabolites (glucuronate conjugates and sulfate conjugates) were determined by a validated LC-MS/MS method (LC: Nexera X2 and Prominence, SHIMADZU. MS/MS: Triple Quad 4500, SCIEX). The LLOQ was 10 ng/mL for both metabolites.

[9] = Unbound fraction of dotinurad in plasma at the time of Cmax (ultrafiltered plasma, LC-MS/MS); type: in vivo, human
Description: as §1

OAT3 = system: OAT3; set-up: method as in PMID 31371478, PMID 31754883; conditions: compared to probenecid, benzbromarone, and lesinurad; cited from earlier work
[10] = system: CYPs, UGTs, sulfotransferases, and drug transporters; set-up: method as in earlier work; conditions: at clinical doses, several in vitro studies; cited from earlier work
[11] = [dotinurad and oxaprozin]/[dotinurad alone], n = 11
[12] = dotinurad 4 mg co-administered with oxaprozin 600 mg, fed, n = 11
[13] = dotinurad alone, single 4 mg oral dose, fed, n = 12
[14] = male, human, plasma, dotinurad alone, single 4 mg oral dose, fed, n = 12

concentration at 24 h [1]: 102 ± 10.4 µg/mL
Structure (SMILES): O=C(O)CCc1nc(-c2ccccc2)c(-c2ccccc2)o1 [Oxaprozin, oxaprozin, reference compound]
Adverse events reported, all (healthy adult males [2]): one event occurred in one subject
Peritonsillar abscess, incidence (healthy adult males [2]): 8.3%
Peritonsillar abscess, number of events (healthy adult males [2]): 1
Pharyngitis, incidence (healthy adult males [2]): 0.0%
Pharyngitis, number of events (healthy adult males [2]): 0
Urine beta 2 microglobulin increased, incidence (healthy adult males [2]): 0.0%
Urine beta 2 microglobulin increased, number of events (healthy adult males [2]): 0
Effect on plasma protein binding rate of dotinurad (human plasma protein; human plasma, ultrafiltration method): lower the plasma protein binding rate of dotinurad

AUC0–inf, geometric mean ratio (90% CI) [5, 11]: 1.165 (1.114–1.219)
CLtot/F, geometric mean ratio (90% CI) [5, 11]: 0.858 (0.820–0.898)
Cmax, geometric mean ratio (90% CI) [5, 11]: 0.982 (0.945–1.021)
T1/2, geometric mean ratio (90% CI) [5, 11]: 1.205 (1.176–1.236)
Tmax, geometric mean ratio (90% CI) [5, 11]: 1.000 (0.844–1.185)
Vd/F, geometric mean ratio (90% CI) [5, 11]: 1.035 (0.999–1.071)
Increase in AUC0–inf of dotinurad ([5]; co-administration with oxaprozin compared with dotinurad alone): 16.5%
AUC0–inf, mean [5, 12]: 4487 ng・h/mL
CLtot/F, mean [5, 12]: 0.901 L/h
AUC0–inf, mean [5, 13]: 3846 ng・h/mL
CLtot/F, mean [5, 13]: 1.065 L/h
Cmax [5, 14]: 0.271 µg/mL
Tmax [5, 14]: 3.67 h
Vd/F [5, 14]: 14.9 L
half-life ([5]; male, human, plasma, dotinurad alone, single 4 mg oral dose, fed, n = 12, read-out: T1/2, mean (converted)): 9.85 h
Estimated glomerular filtration rate (eGFR) (mean ± SD) (healthy adult males [6]; 24 h after administration of dotinurad alone, n = 12): 100.9 ± 13.0 mL/min/1.73 m^2
Estimated glomerular filtration rate (eGFR) (mean ± SD) (healthy adult males [6]; 24 h after co-administration with oxaprozin, n = 11): 93.3 ± 13.0 mL/min/1.73 m^2
Estimated increase in dotinurad exposure when co-administered with oxaprozin ([8]; assuming absence of compensatory enhancement of other metabolic pathways): approximately 13%
Proportion of glucuronidation inhibited by co-administered oxaprozin in terms of the entire metabolism of dotinurad ([8]; calculated from fe of glucuronate conjugates): 13.2%
Unbound fraction in plasma at Cmax, geometric mean ratio (90% CI) [9, 11]: 1.615 (1.454–1.794)
fraction unbound ([9]; male, human, plasma, oral, dotinurad alone, 4 mg, n = 12): 0.00534
Structure (SMILES): O=C(c1cc(Cl)c(O)c(Cl)c1)N1CS(=O)(=O)c2ccccc21 [Dotinurad, dotinurad]
URAT1 inhibition [3]: potent URAT1 inhibitor
Effect on OAT1 [4]: minimal effect
Adverse events reported, all (healthy adult males [2]): Two events occurred in two subjects
Peritonsillar abscess, incidence (healthy adult males [2]): 0.0%
Peritonsillar abscess, number of events (healthy adult males [2]): 0
Pharyngitis, incidence (healthy adult males [2]): 8.3%
Pharyngitis, number of events (healthy adult males [2]): 1
Urine beta 2 microglobulin increased, incidence (healthy adult males [2]): 8.3%
Urine beta 2 microglobulin increased, number of events (healthy adult males [2]): 1
Effect on ABCG2 [7]: minimal effect
Effect on plasma protein binding rates of potentially co-administered drugs (human plasma protein; at clinical doses, in vitro): no effects
Effect on OAT3 (OAT3): minimal effect
Effect on CYPs, UGTs, sulfotransferases, and drug transporters [10]: no effects
